From patent US4511559A, “Biologically active polysaccharide concentrates and process for production of preparates containing such substances” (Kozponti Valto-es Hitelbank Rt. InnovacioAlap, priority 1982, dated 1985) come the findings set out here.

For one data set, the system named is rat. The experiment in a line: in vivo. Particulars: table 4. Here is the method: (§1) The anti-inflammatory activity of the polysaccharide concentrate according to the invention was investigated intraperitoneally on rat according to the paw carrageenan oedema test. Simultaneously the LD50 values of the polysaccharide concentrates (i.p.) were determined.
(§2) The anti-inflammatory activity of the prepared polysaccharide concentrates was determined in comparison to the indomethancin as well using the rat paw carrageenan oedema test. The polysaccharide sample was intraperitoneally injected one hour before the inflammation inducing carrageenan. As reference standard per os applied indomethacin was used, which was suspended in 1% methylcellulose solution, and given through a gastric tube into the stomach one hour prior to the administration of Carrageenan to CFY rats and CFLP mice. The dosage was the same during the toxicity studies as well.
(§3) To develop the PG phase 5 hours are required from the injection of the inflammation inducing carrageenan.

A further data set can be described thus: in vivo. Particulars: rat, in vivo, po, LD50, p.o. As to the method: as §1, §2, §3
The test system of data set [1] is rat paw carrageenan oedema. Briefly: rat paw carrageenan oedema test (anti-inflammatory activity). In kind it is in vivo. Particulars: for Anti-inflammatory activity %: table 4; for ED50: Rattus norvegicus, po, reference standard. The text has this: (§4) The anti-inflammatory activity of the polysaccharide concentrates produced according to the invention was investigated on the rat paw carrageenan oedema test according to Winter et al. [Proc. Soc. Exp. Biol. Med. 111. 544. (1962)]. The concentrate has a significant specific activity and in connection with its advantageous anti-inflammatory activity it posseses a remarkably low toxicity.

The subject of data set [2] is adjuvans arthritis in rat. Briefly: adjuvans arthritis in rat (chronic inflammation model). Conditions: 50 mg/kg, intraperitoneal, 3 weeks. In kind it is in vivo. The text has this:
The polysaccharides produced according to the invention show significant effectivity on chronic inflammation models too, for example on adjuvans arthritis in rat, at intraperitoneal treatment for 3 weeks: […]

Data set [3] is described as follows: rat paw carrageenan oedema test (anti-inflammatory activity). It counts as in vivo. Conditions: rat, in vivo, po, read-out: Therapeutic index LD50/ED50.
From the text: as §4
(In general: In the carrageenan paw model, swelling and tenderness develop within hours.)

Where two headings read alike, the source gives them in different places.

Consider `CC(=O)Oc1ccccc1C(=O)O` [Aspyrine], for which the Dose/LD50 ratio in the data set on rat (dose 400 mg/kg p.o.) is 0.330. The molecule also displayed an LD50 in “in vivo” (table 4) of 1200 mg/kg. In data set [1] (400 mg/kg p.o.), the Anti-inflammatory activity % was 36%.

With `CCCCC1C(=O)N(c2ccccc2)N(c2ccccc2)C1=O` [Phenylbutazone, phenylbutazone], the Anti-inflammatory activity % is 40% in data set [1] (90 mg/kg p.o.) and 64% in data set [2]. In data set [1] (100 mg/kg, standard), this molecule displayed an inhibition of 45%. Also, the Inhibiton in data set [1] (intraperitoneally, rat, 100 mg/kg) is reported as 45.0%.

As to `COc1ccc2c(c1)c(CC(=O)O)c(C)n2C(=O)c1ccc(Cl)cc1` [Indomethacin, indomethacin], the Dose/LD50 ratio with rat (dose 10 mg/kg p.o.) stood at 0.580. Moreover, the figures for the LD50 in the data set “in vivo” (table 2) and in “in vivo” (table 4) were 32 mg/kg and 17 mg/kg, respectively. In data set [1] (10 mg/kg p.o.), this molecule showed an Anti-inflammatory activity % of 51%. Also, the figures for the ED50 in data set [1] (2 hours) and in data set [1] (5 hours) were 3.14 mg/kg and 2.2 mg/kg, respectively. The selectivity ratio in data set [3] (2 hours) was 10.2; in data set [3] (5 hours) it was 14.5.

The LD50 is the dose at which mortality reaches 50%. High values mean a less toxic substance, low ones a more toxic substance. For orientation: inhibition means the percentage by which the read-out fell short of the control. Low readings indicate a weak effect, high ones a strong effect. As usually defined, the ED50 is the midpoint of the dose-response relation.
